Values of other authors in US8496914B2, “Antibacterial oral rinse formulation for preventing coronary artery disease” (priority 2005, dated 2013).

Assays:
[1] = tested on: Staphylococcus aureus, Staphylococcus epidermidis and Propionibacterium acnes; settings: Raman et al. 1995
Staphylococcus aureus = settings: Williams et al. 1997

Row | SMILES | inhibition of three bacterial strains [1] | activity against Staphylococcus aureus (Staphylococcus aureus)
1 | CC1=CCC2CC1C2(C)C (stereo not drawn) [alpha-pinene] | inhibit | –
2 | CC1=CCC(C(C)(C)O)CC1 (stereo not drawn) [alpha-terpineol] | inhibit | –
3 | CC1=CCC(O)(C(C)C)CC1 (stereo not shown) [terpinen-4-ol] | inhibit | equally effective
